According to patent publication US20230181678A1, “NOVEL ANTIBACTERIAL PEPTIDE OR PEPTIDE ANALOG AND USE THEREOF” (CAMP THERAPEUTICS INC., priority 2020, published 2023):
Square brackets hold non-standard residues; d marks the D form. * marks the point of attachment. Octanoyl = CCCCCCCC(=O)*; Dab = NCC[C@H](N)C(=O)O; Hexanoyl = CCCCCC(=O)*

Tests used:
[1] = tested on: Acinetobacter baumannii ATCC 17978; assay: MIC assay, sensitizing effect of peptide on antibiotics; assay type: cell-based; conditions: for sensitizing ability to erythromycin and novobiocin: recap of Example 1; for MIC reduction effect (fold reduction) of erythromycin: peptide 0.4 uM with erythromycin vs erythromycin alone
Procedure: Each peptide at a concentration of 0.4 uM was used together with the two gram-positive antibiotics erythromycin and novobiocin to identify their effect on Acinetobacter baumannii ATCC 17978 (MIC assay). Acinetobacter baumannii, which is Gram-negative bacteria commonly classified as an opportunistic pathogen, is a human-infecting bacterium with a high probability of nosocomial infection because it has broad-spectrum antibacterial resistance and is able to survive for a long time even in a low-humidity environment. For each of the gram-positive antibiotics, as compared with MIC of each antibiotic in a case of being used alone, fold reduction of MIC of each antibiotic was measured in a case where each antibiotic was used together with each peptide.
All MIC assay experiments were performed using the Clinical and Laboratory Standards Institute (CLSI) guidelines (Clinical & Laboratory Standards Institute: CLSI Guidelines, 2017). […] The cells were inoculated at 1.5×10^5 CFU per 200 μL solution of each well in a 96-well plate. The peptide and the antibiotic were prepared using 2-fold serially diluted concentrations. […] Incubation was performed at 37° C. for 18 hours, and then absorbance was measured at 600 nm using an EPOCH2 microplate reader (BioTek, Winooski, USA) to calculate a MIC value. […] Fold reduction was calculated using the following expression.
(§1) Fold reduction=MIC of antibiotic alone/MIC of antibiotic in presence of sensitizing peptide
The same MIC assay method as in Example 3 was used.
(§2) ATCC 25922, A.b. ATCC 17978, K.p. ATCC 700603, and P.a. ATCC 27853, or CRE (E.c. NDM-1, K.p. NDM-1, or K.p. KPC) (FIGS. 9 and 10).

host cells = conditions: cited from earlier work
Gram-negative bacteria = conditions: cited from earlier work
[2] = tested on: Acinetobacter baumannii ATCC 17978; assay: MIC assay, sensitizing effect of peptide on antibiotics; assay type: cell-based
[3] = tested on: E.c. ATCC 25922, A.b. ATCC 17978, K.p. ATCC 700603, P.a. ATCC 27853, or CRE (E.c. NDM-1, K.p. NDM-1, or K.p. KPC); assay: MIC assay, comparison with L9P on rifampicin or colistin; assay type: cell-based; conditions: FIGS. 9 and 10
Procedure: (§3) All MIC assay experiments were performed using the Clinical and Laboratory Standards Institute (CLSI) guidelines (Clinical & Laboratory Standards Institute: CLSI Guidelines, 2017). Bacterial cells cultured overnight were diluted to 0.05 McFarland standard using McFarland (KIT […] PLUS INSTRUMENT, Biomerieux) in Muller Hinton II Broth (cation-adjusted) (Difco). The cells were inoculated at 1.5×10^5 CFU per 200 μL solution of each well in a 96-well plate. The peptide and the antibiotic were prepared using 2-fold serially diluted concentrations. […] Incubation was performed at 37° C. for 18 hours, and then absorbance was measured at 600 nm using an EPOCH2 microplate reader (BioTek, Winooski, USA) to calculate a MIC value. The MIC value was defined as a concentration of the antibiotic or peptide at which bacterial growth was inhibited to a level of lower than 10% growth of the positive control. Fold reduction was calculated using the following expression.
as §2

K.p. KPC = assay: MIC assay, sensitizing effect of peptide on rifampicin or colistin (CRE); assay type: cell-based, Klebsiella pneumoniae; conditions: peptide 4 ug/ml
Procedure: as §3, §2

Ec NDM-1 = assay: MIC assay, sensitizing effect of peptide on rifampicin (CRE); assay type: cell-based, E. coli; conditions: FIG. 9E; Ec NDM-1 (CRE); peptide 4 ug/ml
Procedure: as §3, §2

K.p. ATCC 700603 = assay: MIC assay, sensitizing effect of peptide on rifampicin; assay type: cell-based, Klebsiella pneumoniae; conditions: FIG. 9C, peptide 4 ug/ml
Procedure: as §3, §2

E. coli clinical strains = assay: MIC50 and MIC90 in clinical strains with CMP1709 (colistin); assay type: cell-based; conditions: CMP1709 4 ug/ml with colistin vs colistin alone; results not shown
Description: (§4) The selected clinical strains E. coli, K. pneumoniae, E. cloacae, C. freundii, and S. marcescens were all carbapenem-resistant strains, and the selected clinical strain P. aeruginosa included 43 strains of imipenem- and meropenem-resistant strains, and 60 strains of imipenem- and meropenem-sensitive strains.
(§5) The results are illustrated in FIG. 11 (results not shown for colistin). The “Fold reduction of MIC90” in FIG. 11 indicates a MIC90 value observed in a case where the antibacterial agent was used in combination with CMP1709 as compared with a case where the antibacterial agent was used alone.

[4] = tested on: E. cloacae clinical strains; assay: as above; assay type: cell-based; conditions: CMP1709 4 ug/ml with colistin vs colistin alone; results not shown
Description: as §4, §5

P.a. ATCC 27853 = assay: MIC assay, sensitizing effect of peptide on rifampicin or colistin; assay type: cell-based, Pseudomonas aeruginosa; conditions: peptide 4 ug/ml
Procedure: as §3, §2

Kp NDM-1 = assay: MIC assay, sensitizing effect of peptide on rifampicin (CRE); assay type: cell-based, Klebsiella pneumoniae; conditions: FIG. 9F; Kp NDM-1 (CRE); peptide 4 ug/ml
Procedure: as §3, §2

E. coli ATCC 25922 = assay: MIC assay, sensitizing effect of peptide on antibacterial agents; assay type: cell-based
Procedure: as §3, §1
Using the same MIC assay method as in Example 1, sensitizing effects of the peptide L9P (CMP1107, 1 ug/ml), which is known as a conventional sensitive AMP, and CMP1401 (1 ug/ml) were compared on existing antibacterial agents against E. coli ATCC 25922 (FIG. 5A).
In addition, MIC screening was used to compare sensitizing effects of the competitive drug SPR741 and the peptide CMP1401 or CMP1501 on the existing antibacterial agents against E. coli ATCC 25922 (FIGS. 5B and 5C). SPR741, which is a previously known polymyxin B (PMB) analog, is a sensitive AMP, and is a drug that has been identified through preclinical experiments to be effective against Gram-negative bacteria in a case of being used together with existing Gram-positive antibiotics.
as §2

E. coli NDM-1 = assay: Neutropenic mouse thigh infection model; assay type: in vivo
[5] = tested on: inner membrane of E. coli ATCC 25922; assay: Enzyme assay, inner membrane leakage (β-galactosidase release, ONPG); assay type: cell-based; conditions: 1.5 mM ONPG
Procedure: (§6) It was observed, through an enzyme assay, whether the sensitizing peptide destroyed the outer and inner membranes of Gram-negative bacteria. In the presence of the sensitizing peptide, it was observed whether in a case where 1.5 mM ONPG was used together therewith, β-galactosidase was released from E. coli ATCC 25922 for the inner membrane, and whether in a case where 200 μM CENTA was used together therewith, β-lactamase was released from E. coli NDM-1 for the outer membrane.
To determine leakage of the inner membrane, release of the cytoplasmic enzyme β-galactosidase was evaluated. The bacteria were diluted to OD600=1 and 1.5 mM ONPG (O-nitrophenyl-β-D-galactopyranoside) was added. Absorbance of a product of enzyme reaction was measured at 420 nm. The other procedures were carried out in the same manner as in the experiment for outer membrane destruction.

[6] = tested on: outer membrane of E. coli NDM-1; assay: Enzyme assay, outer membrane leakage (β-lactamase release, CENTA); assay type: cell-based; conditions: peptide 0.63 or 1.30 uM, 37° C., 1 h; 200 μM CENTA
Procedure: as §6
Specifically, to determine leakage of the outer membrane, activity of the β-lactamase released from the outer membrane was evaluated. New Delhi metallo-β-lactamase-1 (NDm-1)-producing E. coli cells were washed three times with DPBS and suspended in the same buffer. The cells were diluted to an OD600 of 0.2 and treated with the peptide at a concentration of 0.63 or 1.30 uM at 37° C. for 1 h. After centrifugation, the supernatant was incubated with 200 μM CENTATM β-lactamase substrate at 37° C. for 1 hour. An optical density was obtained by measuring absorbance of a product of enzyme reaction at 405 nm using a microplate reader (Molecular Devices Co., Menlo Park, Calif.).
The results are illustrated in FIGS. 12A and 12B. The y-axis is absorbance measured at 405 nm, and higher absorbance is observed as a higher amount of β-lactamase is released due to destruction of the membrane.

Ac-AKLLKLLKKPLKLLK-NH2 [CMP1301]
sensitizing ability to erythromycin and novobiocin [1]: excellent sensitizing ability

Ac-KKALKLLKKPLKLLK-NH2 [CMP1303]
MIC reduction effect (fold reduction) of erythromycin [1]: 8 times

Ac-KKLLKLAKKPLKLLK-NH2 [CMP1307]
MIC reduction effect (fold reduction) of erythromycin [1]: 8 times
sensitizing ability to erythromycin and novobiocin [1]: excellent sensitizing ability

Ac-KKLLKLLKKPLKLLK-NH2 [CMP1203]
MIC reduction effect (fold reduction) of erythromycin [1]: two times

Ac-KLLKLLKKPLKLLK-NH2 [CMP1107]
toxicity to host cells (host cells): low toxicity to host cells
efficacy against E. coli (Gram-negative bacteria; Korean Patent No. 1811437): weak efficacy against E. coli
destruction of membranes of Gram-negative bacteria (known property) (Gram-negative bacteria; previously known sensitizing peptide): known to not destroy the membranes of Gram-negative bacteria

HexA-KKALKLAKKPLKLLK-NH2 (Hexanoyl-KKALKLAKKPLKLLK-NH2) [CMP1406]
sensitizing effect for fusidic acid ([2]; peptide 0.31 μM, vs fusidic acid alone): 32 times
sensitizing effect for novobiocin ([2]; peptide 0.31 μM, vs novobiocin alone): 8 times
sensitizing effect for rifampicin ([2]; peptide 0.31 μM, vs rifampicin alone): 8 times

OctA-DabDabAFDabVADabDabPLSLLDab-NH2 (Octanoyl-[Dab][Dab]AF[Dab]VA[Dab][Dab]PLSLL[Dab]-NH2; SMILES CCCCCCCC(=O)N[C@@H](CCN)C(=O)N[C@@H](CCN)C(=O)N[C@@H](C)C(=O)N[C@@H](Cc1ccccc1)C(=O)N[C@@H](CCN)C(=O)N[C@H](C(=O)N[C@@H](C)C(=O)N[C@@H](CCN)C(=O)N[C@@H](CCN)C(=O)N1CCC[C@H]1C(=O)N[C@@H](CC(C)C)C(=O)N[C@@H](CO)C(=O)N[C@@H](CC(C)C)C(=O)N[C@@H](CC(C)C)C(=O)N[C@@H](CCN)C(N)=O)C(C)C) [CMP1709]
Decreased MIC value of rifampicin at peptide concentration of 4 ug/ml ([2]; FIG. 9B, A.b. ATCC 17978, peptide 4 ug/ml): 0.078 µg/mL
sensitizing effect on rifampicin or colistin compared with L9P [3]: very good sensitizing effect
Decreased MIC value of rifampicin at peptide concentration of 4 ug/ml (K.p. KPC; FIG. 9G): 0.0078 µg/mL
Decreased MIC value of colisitin at peptide concentration of 4 ug/ml (K.p. KPC; FIG. 10C): 0.50 µg/mL
Decreased MIC value of rifampicin at peptide concentration of 4 ug/ml (Ec NDM-1): 0.0040 µg/mL
Decreased MIC value of rifampicin at peptide concentration of 4 ug/ml (K.p. ATCC 700603): 0.0078 µg/mL
sensitizing effect with colistin (E. coli clinical strains): two times
sensitizing effect with colistin [4]: two times
Decreased MIC value of rifampicin at peptide concentration of 4 ug/ml (P.a. ATCC 27853; FIG. 9D): 0.25 µg/mL
Decreased MIC value of colisitin at peptide concentration of 4 ug/ml (P.a. ATCC 27853; FIG. 10B): 0.063 µg/mL
Decreased MIC value of rifampicin at peptide concentration of 4 ug/ml (Kp NDM-1): 0.0078 µg/mL
Decreased MIC value of rifampicin at peptide concentration of 4 ug/ml (E. coli ATCC 25922; FIG. 9A, E.c. ATCC 25922, peptide 4 ug/ml): 0.0020 µg/mL
Decreased MIC value of colisitin at peptide concentration of 4 ug/ml (E. coli ATCC 25922; FIG. 10A, E.c. ATCC 25922, peptide 4 ug/ml): 0.016 µg/mL
decrease in number of colonies compared with rifampicin alone (E. coli NDM-1; CMP1709 75 mg/kg in the presence of 20 mg/kg of rifampicin): 8.7 fold
number of colonies, peptide administered alone (E. coli NDM-1; CMP1709 alone): No changes were observed in the number of colonies
therapeutic efficacy of combination therapy with rifampicin (E. coli NDM-1; rifampicin and CMP1709): excellent therapeutic efficacy

OctA-DabDabALDabLADabDabPLDabLLDab-NH2 [CMP1501]
sensitizing effect on existing antibacterial agents compared with SPR741 (E. coli ATCC 25922; FIGS. 5B and 5C): almost the same or much better sensitizing effect
sensitizing effects on rifampicin and linezolid (E. coli ATCC 25922; peptide 0.5 ug/ml): excellent sensitizing effects
sensitizing effect compared with SPR741 at half its concentration (E. coli ATCC 25922; peptide concentration decreased by half as compared with SPR741, FIG. 5C): equal or superior effect

OctA-KKLLKLLKKPLKLLK-NH2 (Octanoyl-KKLLKLLKKPLKLLK-NH2; SMILES CCCCCCCC(=O)N[C@@H](CCCCN)C(=O)N[C@@H](CCCCN)C(=O)N[C@@H](CC(C)C)C(=O)N[C@@H](CC(C)C)C(=O)N[C@@H](CCCCN)C(=O)N[C@@H](CC(C)C)C(=O)N[C@@H](CC(C)C)C(=O)N[C@@H](CCCCN)C(=O)N[C@@H](CCCCN)C(=O)N1CCC[C@H]1C(=O)N[C@@H](CC(C)C)C(=O)N[C@@H](CCCCN)C(=O)N[C@@H](CC(C)C)C(=O)N[C@@H](CC(C)C)C(=O)N[C@@H](CCCCN)C(N)=O) [CMP1407]
destruction of inner membrane (β-galactosidase release) [5]: did not destroy these membranes
destruction of outer membrane (β-lactamase release) [6]: did not destroy these membranes
